{"source": "patent US20160199481A1", "about": "(priority 2013, published 2016)", "key": {"WT HA/WT NA virus [1]": {"test_system": "WT HA/WT NA virus", "type": "cell-based, influenza A"}, "WT HA/WT NA virus [2]": {"test_system": "WT HA/WT NA virus", "type": "cell-based, influenza A", "remark": "listed apart in the source"}}, "note": "Entries after “also recorded” stand apart in the source; their conditions may differ."}
{"substance": "oseltamivir", "values": [{"measurement": "neutralization of infectivity (percent infectivity remaining)", "setting": "WT HA/WT NA virus [1]", "value": "resistant to neutralization by oseltamivir; also recorded: uninhibited at all concentrations tested"}, {"measurement": "inhibition of agglutination by oseltamivir", "setting": "WT HA/WT NA virus [2]", "value": "uninhibited at all oseltamivir concentrations tested"}]}
